One series relates to RNA (Type VI from torula yeast). Nature of the series: In vitro solution assay (primary screening): fluorescent emission fold change upon binding to RNA. To be noted: dye 10 μM, RNA 500 μg/mL in TE buffer. Here is the method: (§1) The fluorescence spectra data in the primary screening and selected dyes titration assay study was obtained by Gemini XS plate reader. RNA solution was prepared right before the assay experiments to avoid possible degradation and contamination. In the primary screening, 1 mg/mL RNA (type VI from torula yeast) buffer solution was used. Point scans were carried out first using five Ex/Em point sets ([…], 400/500, 450/550, 500/600, 550/650 nm). Spectra scans were then carried out for the selected dyes. Excitation wavelengths were set at 350 nm, 400 nm, 450 nm, 500 nm, and 550 nm and the emission wavelengths were scanned. RNA (16S- and 23S-ribosomal from E. coli) and DNA (salmon testes) titration experiments and quantum yield/extinction coefficient determination for the three best dyes were carried out by the plate reader as well. Excitation λmax obtained from F-2500 Hitachi Fluorophotometer was used. Absorbance wavelength was determined by SpectraMax Plus^384 absorbance plate reader. […] was chosen as standard and 480 nm was used as excitation wavelength in the scanning for quantum yield determination.
The screening strategy used in this study is illustrated in FIG. 2. Both in vitro RNA assays and live cell imaging methods were utilized in the primary screening of the dye library. Selective binding of the dye to RNA in solution was the primary criterion for selecting lead compounds for subsequent bioimaging studies, Herein, the library dyes' fluorescent emission intensity fold change upon binding to RNA was measured in solution. Dyes showing five-fold or higher emission changes in the presence of RNA were selected (Table 3). Note the dyes listed are identified by the building blocks I and II from Table 2. For example, A4 is the product made by reacting compound A from the list of Building block I and compound 4 from the list of Building block II.
Consider `Cn1c(/C=C/c2cc[n+](C)c3ccccc23)cc2ccccc21` [Dye D108], for which the “Em(nm)” value was found to be 630 nm, the “Ex(nm)” value was found to be 500 nm and the “Fold (fluorescent emission fold changes to RNA)” value was 21.

In the case of `Cn1c(/C=C/c2cc[n+](C)cc2)cc2ccccc21` [Dye A108], the “Em(nm)” value is listed as 590 nm, the “Ex(nm)” value was determined as 450 nm and the “Fold (fluorescent emission fold changes to RNA)” value came out at 8.

In the case of `COc1cc(OC)c(OC)cc1C=Cc1cccc(C)[n+]1C` [Dye C8], the “Em(nm)” value was found to be 570 nm, the “Ex(nm)” value worked out at 450 nm and the “Fold (fluorescent emission fold changes to RNA)” value was 9.

For `COc1cc(/C=C/c2cc[n+](C)cc2)c(OCc2ccccc2)cc1OC` [Dye A156], the “Em(nm)” value is 580 nm, the “Ex(nm)” value turned out to be 450 nm and the “Fold (fluorescent emission fold changes to RNA)” value came out at 42.

Consider `Cn1c(C=Cc2ccc3ccccc3[n+]2C)cc2ccccc21` [Dye E108], for which the “Em(nm)” value is listed as 620 nm, the “Ex(nm)” value worked out at 500 nm and the “Fold (fluorescent emission fold changes to RNA)” value is 21.

Turning to `COc1ccc2c(ccc(C=Cc3cc(OC)c(OC)cc3OC)[n+]2C)c1.[I-]` [Dye F8], the “Em(nm)” value amounted to 610 nm, the “Ex(nm)” value worked out at 500 nm and the “Fold (fluorescent emission fold changes to RNA)” value stood at 52.

Take `COc1ccc2c(ccc(C=Cc3ccc(N(C)CCO)cc3)[n+]2C)c1` [Dye F10]: the “Em(nm)” value was 630 nm, the “Ex(nm)” value was 500 nm and the “Fold (fluorescent emission fold changes to RNA)” value is 38.

As for `COc1cc(OC)c(C=Cc2cc[n+](C)cc2)c(OC)c1` [Dye A144], the “Em(nm)” value was determined as 530 nm, the “Ex(nm)” value turned out to be 450 nm and the “Fold (fluorescent emission fold changes to RNA)” value was found to be 26.

Turning to `C[n+]1ccc(C=Cc2c(O)ccc3ccccc23)cc1` [Dye A42], the “Em(nm)” value turned out to be 560 nm, the “Ex(nm)” value worked out at 450 nm and the “Fold (fluorescent emission fold changes to RNA)” value stood at 10.

As to `Cc1cccc(C=Cc2cc3ccccc3n2C)[n+]1C` [Dye C108], the “Em(nm)” value worked out at 580 nm, the “Ex(nm)” value is listed as 450 nm and the “Fold (fluorescent emission fold changes to RNA)” value is recorded as 8.

For the molecule `COc1ccc2c(ccc(C=Cc3ccc(N(C)CCC#N)cc3)[n+]2C)c1` [Dye F9], the “Em(nm)” value worked out at 620 nm, the “Ex(nm)” value is recorded as 500 nm and the “Fold (fluorescent emission fold changes to RNA)” value was 86.

For the molecule `CCN(CC)c1ccc(/C=C/c2cccc[n+]2C)c(C#N)c1` [Dye B132], the “Em(nm)” value was found to be 590 nm, the “Ex(nm)” value is on record as 500 nm and the “Fold (fluorescent emission fold changes to RNA)” value was found to be 28.

Turning to `CCN(CC)c1ccc(C=Cc2ccc3cc(OC)ccc3[n+]2C)c(C#N)c1` [Dye F132], the “Em(nm)” value stood at 640 nm, the “Ex(nm)” value is reported as 500 nm and the “Fold (fluorescent emission fold changes to RNA)” value stood at 14.

As to `CN(CCO)c1ccc(/C=C/c2cc[n+](C)cc2)cc1` [Dye A10], the “Em(nm)” value was found to be 610 nm, the “Ex(nm)” value turned out to be 500 nm and the “Fold (fluorescent emission fold changes to RNA)” value is 23.

As for `COc1ccc2c(ccc(/C=C/c3c[nH]c4ccccc34)[n+]2C)c1` [Dye F4], the “Em(nm)” value was found to be 560 nm, the “Ex(nm)” value is on record as 450 nm and the “Fold (fluorescent emission fold changes to RNA)” value was 62.

On to `CCn1c2ccccc2c2cc(C=Cc3cc[n+](C)c4ccccc34)ccc21` [Dye D107], for which the “Em(nm)” value turned out to be 620 nm, the “Ex(nm)” value stood at 500 nm and the “Fold (fluorescent emission fold changes to RNA)” value is 13.

Take `CCN(CC)c1ccc(C=Cc2cc[n+](C)cc2)c(C#N)c1` [Dye A132]: the “Em(nm)” value turned out to be 610 nm, the “Ex(nm)” value is given as 500 nm and the “Fold (fluorescent emission fold changes to RNA)” value is 17.

For `COc1ccc2c(ccc(/C=C/c3cc4ccccc4n3C)[n+]2C)c1` [Dye F108], the “Em(nm)” value came to 610 nm, the “Ex(nm)” value is reported as 500 nm and the “Fold (fluorescent emission fold changes to RNA)” value turned out to be 27.

With `Cc1cccc(/C=C/c2ccc(N(C)CCC#N)cc2)[n+]1C` [Dye C9], the “Em(nm)” value is reported as 610 nm, the “Ex(nm)” value was 500 nm and the “Fold (fluorescent emission fold changes to RNA)” value was found to be 9.

Take `CN(CCC#N)c1ccc(/C=C/c2cc[n+](C)cc2)cc1` [Dye A9]: the “Em(nm)” value was found to be 600 nm, the “Ex(nm)” value is reported as 500 nm and the “Fold (fluorescent emission fold changes to RNA)” value stood at 21.

Regarding `C[n+]1ccc(/C=C/c2c[nH]c3ccccc23)cc1` [Dye A4], the “Em(nm)” value stood at 540 nm, the “Ex(nm)” value was found to be 450 nm and the “Fold (fluorescent emission fold changes to RNA)” value was 11.

On to `CN(C)c1ccc(C=Cc2cc[n+](C)cc2)cc1` [Dye A22], for which the “Em(nm)” value was 610 nm, the “Ex(nm)” value was found to be 500 nm and the “Fold (fluorescent emission fold changes to RNA)” value is recorded as 28.

For `Cc1cccc(/C=C/c2ccc(N(C)C)cc2)[n+]1C` [Dye C22], the “Em(nm)” value came out at 630 nm, the “Ex(nm)” value turned out to be 500 nm and the “Fold (fluorescent emission fold changes to RNA)” value amounted to 6.

As to `COc1cc(OC)c(OC)cc1/C=C/c1cc[n+](C)cc1` [Dye A8], the “Em(nm)” value turned out to be 580 nm, the “Ex(nm)” value was 450 nm and the “Fold (fluorescent emission fold changes to RNA)” value worked out at 37.

As to `CCN(CC)c1ccc(C=Cc2ccc3cc(OC)ccc3[n+]2C)cc1` [Dye F92], the “Em(nm)” value came out at 640 nm, the “Ex(nm)” value was determined as 500 nm and the “Fold (fluorescent emission fold changes to RNA)” value is reported as 20.

As to `CN(C)c1ccc(C=Cc2cc[n+](C)cc2)c2ccccc12` [Dye A24], the “Em(nm)” value came out at 660 nm, the “Ex(nm)” value worked out at 500 nm and the “Fold (fluorescent emission fold changes to RNA)” value is reported as 103.

`CCN(CC)c1ccc(/C=C/c2cccc(C)[n+]2C)cc1` [Dye C92]: the “Em(nm)” value is on record as 630 nm, the “Ex(nm)” value is 500 nm and the “Fold (fluorescent emission fold changes to RNA)” value is reported as 15.

Regarding `C[n+]1c(C=Cc2ccc3c(c2)OCO3)ccc2ccccc21` [Dye E43], the “Em(nm)” value amounted to 560 nm, the “Ex(nm)” value turned out to be 450 nm and the “Fold (fluorescent emission fold changes to RNA)” value is given as 10.

Regarding `COc1cc(/C=C/c2cccc[n+]2C)c(OCc2ccccc2)cc1OC` [Dye B156], the “Em(nm)” value turned out to be 560 nm, the “Ex(nm)” value was determined as 450 nm and the “Fold (fluorescent emission fold changes to RNA)” value is listed as 54.

For the molecule `Cc1cc(C=Cc2cc[n+](C)cc2)c(C)n1-c1cccc(C(F)(F)F)c1` [Dye A121], the “Em(nm)” value is 540 nm, the “Ex(nm)” value came out at 450 nm and the “Fold (fluorescent emission fold changes to RNA)” value turned out to be 28.

As to `C[n+]1c(C=Cc2cc(Br)c(Cl)c(Br)c2)ccc2ccccc21` [Dye E111], the “Em(nm)” value came out at 620 nm, the “Ex(nm)” value came out at 500 nm and the “Fold (fluorescent emission fold changes to RNA)” value is on record as 17.

As for `CCN(CC)c1ccc(C=Cc2cccc[n+]2C)cc1` [Dye B92], the “Em(nm)” value is reported as 600 nm, the “Ex(nm)” value is reported as 500 nm and the “Fold (fluorescent emission fold changes to RNA)” value is 28.

System in a further series: not listed separately
Nature of the series: Fluorescence spectrum in TE buffer of dyes selected from live cell imaging. Format: physicochemical. To be noted: dye 10 μM in TE buffer. Here is the method: as §1
As for `COc1ccc2c(ccc(/C=C/C=C/c3ccccc3OC)[n+]2C)c1` [Dye F97], the SPECTRUM EM is 460 nm and the SPECTRUM EX was 350 nm.

Regarding `COc1ccc2c(ccc(/C=C/C3CCCN3C)[n+]2C)c1` (stereo not drawn) [Dye F74], the SPECTRUM EM was 550 nm and the SPECTRUM EX is 450 nm.

`COc1ccc2c(ccc(C=Cc3cccc(Br)c3)[n+]2C)c1` [Dye F40]: the SPECTRUM EM came out at 490 nm and the SPECTRUM EX was found to be 400 nm.

The molecule `COc1ccc2c(ccc(C=Cc3ccccc3N(c3ccccc3)c3ccccc3)[n+]2C)c1` [Dye F138] showed an SPECTRUM EM of 460 nm and an SPECTRUM EX of 350 nm.

Molecule `COc1ccc2c(ccc(/C=C/c3ccco3)[n+]2C)c1` [Dye F45] had an SPECTRUM EM of 490 nm and an SPECTRUM EX of 400 nm.

Take `COc1ccc2c(ccc(C=Cc3cc(C(C)(C)C)ccc3O)[n+]2C)c1` [Dye F73]: the SPECTRUM EM turned out to be 490 nm and the SPECTRUM EX was 400 nm.

As to `C[n+]1ccc(C=Cc2cccc(F)c2F)c2ccccc21` [Dye D84], the SPECTRUM EM came out at 460 nm and the SPECTRUM EX was 350 nm.

The molecule `C[n+]1c(C=Cc2cc(C(C)(C)C)ccc2O)ccc2ccccc21` [Dye E73] registered an SPECTRUM EM of 550 nm and an SPECTRUM EX of 450 nm.

For `COc1ccc2c(ccc(/C=C/c3cccc(C(F)(F)F)c3)[n+]2C)c1` [Dye F82], the SPECTRUM EM came out at 490 nm and the SPECTRUM EX is 400 nm.

`COc1ccc2c(ccc(/C=C/c3ccc(OC)c4ccccc34)[n+]2C)c1` [Dye F41]: the SPECTRUM EM was 590 nm and the SPECTRUM EX is 450 nm.

In the case of `COc1ccc2c(ccc(/C=C/c3ccc(OC)c(O)c3Cl)[n+]2C)c1` [Dye F155], the SPECTRUM EM is 540 nm and the SPECTRUM EX stood at 450 nm.

`COC(=O)c1cc(OC)cc(OC)c1C=Cc1ccc2cc(OC)ccc2[n+]1C` [Dye F145] had an SPECTRUM EM of 540 nm and an SPECTRUM EX of 400 nm.
